Values quoted from earlier work, collected in patent publication US12023406B2, “Gastric residence systems with release rate-modulating films” (Lyndra Therapeutics, Inc., priority 2017, dated 2024).

Conditions: gastric pH range

Cc1nc2n(c(=O)c1CCN1CCC(c3noc4cc(F)ccc34)CC1)CCCC2 [risperidone]
solubility at pH 1.5 versus pH 4.8: significantly higher at the more acidic end of the gastric pH range
